In patent publication US4923868A, “8-fluoro and 7,8,10-trifluoro-9-(substituted)-6-oxo-6H-benzo(C)quinolizine-5-carboxyl ic acids” (American Cyanamid Company, priority 1989, dated 1990):
In brackets after ≈: the same amount, converted by molar mass. Read-outs that look alike come from different tables or passages of the source.

How the values were obtained:
Test in all cases: In vitro antibacterial spectrum, agar plate dilution (MIC)
Assay type in all cases: cell-based
Streptococcus faecalis = conditions: Mueller-Hinton agar, 10^4 CFU, 18 h, 35° C
Description: (§1) The in vitro antimicrobial spectrum of the compounds of the invention were determined by the agar plate dilution method with Mueller-Hinton agar and an inoculum of each test organism of approximately 10^4 colony forming units delivered by the Steers replicating device. The minimal inhibitory concentration (MIC) in mcg/ml is defined as the lowest concentration of test compound that inhibited visible growth after 18 hours incubation at 35° C.

Proteus rettgeri = conditions: Providencia rettgeri; Proteus rettgeri IO 83-21; Mueller-Hinton agar, 10^4 CFU, 18 h, 35° C
Description: as §1

Escherichia coli = conditions: 10^4 CFU, 35° C
Description: as §1

Morganella morganii = conditions: 18 h, 10^4 CFU, 35° C
Description: as §1

Citrobacter diversus = conditions: Citrobacter koseri; Citrobacter diversus K 82-24; Mueller-Hinton agar, 10^4 CFU, 18 h, 35° C
Description: as §1

Klebsiella nneumoniae = conditions: Mueller-Hinton agar, 10^4 CFU, 18 h, 35° C
Description: as §1

Pseudomonas aeruginosa = conditions: Mueller-Hinton agar, 10^4 CFU, 18 h, 35° C
Description: as §1

Providencia stuartii = Providencia stuartii CMC 83-3; Mueller-Hinton agar, 10^4 CFU, 18 h, 35° C
Description: as §1

Enterobacter cloacae = conditions: 18 h, 10^4 CFU, 35° C
Description: as §1

Staphylococcus aureus = conditions: Mueller-Hinton agar, 10^4 CFU, 18 h, 35° C
Description: as §1

Serratia marcescens = conditions: 18 h, 10^4 CFU, 35° C
Description: as §1

Work on `CN1CCN(c2cc3c(cc2F)c(=O)c(C(=O)O)c2ccccn23)CC1` [Example 6, 8-Fluoro-9-(4-methyl-1-piperazinyl)-6-oxo-6H-benzo[c]quinolizine-5-carboxylic acid] yielded an MIC (Streptococcus faecalis; Enterococcus faecalis, Streptococcus faecalis VCI 85-30, read-out: MIC) greater than 16 µg/mL, an MIC (Streptococcus faecalis; Streptococcus faecalis CMC 83-120) greater than 16 µg/mL and an MIC (Streptococcus faecalis; Streptococcus faecalis VGH 84-69) greater than 16 µg/mL. The MIC (Proteus rettgeri) was 1 µg/mL (≈ 2.81 µM), the MIC (Escherichia coli; 18 h, Escherichia coli CMC 84-50, Mueller-Hinton agar) was 2 µg/mL (≈ 5.63 µM) and the MIC (Escherichia coli; 18 h, Escherichia coli D 21, Mueller-Hinton agar) was 4 µg/mL (≈ 11.3 µM). The MIC (Escherichia coli; 18 h, Escherichia coli D 22, Mueller-Hinton agar) was 2 µg/mL (≈ 5.63 µM), the MIC (Escherichia coli; 18 h, Escherichia coli MOR 84-20, Mueller-Hinton agar) was 2 µg/mL (≈ 5.63 µM) and the MIC (Escherichia coli; 18 h, Escherichia coli VGH 84-19, Mueller-Hinton agar) was 4 µg/mL (≈ 11.3 µM). The MIC (Escherichia coli; ATCC25922, 18 h, Escherichia coli ATCC 25922, Mueller-Hinton agar) was 4 µg/mL (≈ 11.3 µM), the MIC (Morganella morganii; Morganella morganii CMC 84-38, Mueller-Hinton agar) was 0.5 µg/mL (≈ 1.41 µM) and the MIC (Morganella morganii; Morganella morganii VGH 84-12, Mueller-Hinton agar) was 4 µg/mL (≈ 11.3 µM). For the same molecule, the MIC (Morganella morganii; Moroanella morganii MOR 84-45, Mueller-Hinton agar) was 0.5 µg/mL (≈ 1.41 µM), the MIC (Citrobacter diversus) was 4 µg/mL (≈ 11.3 µM) and the MIC (Klebsiella nneumoniae; Klebsiella nneumoniae IO 83-5) was 8 µg/mL (≈ 22.5 µM). The MIC (Klebsiella nneumoniae; Klebsiella nneumoniae MOR 84-24, read-out: MIC) was 8 µg/mL (≈ 22.5 µM), the MIC (Klebsiella nneumoniae; Klebsiella oneumoniae CMC 84-31) was 8 µg/mL (≈ 22.5 µM) and the MIC (Pseudomonas aeruginosa; Pseudomonas aeruginosa CMC 83-20) was greater than 16 µg/mL. The MIC (Pseudomonas aeruginosa; Pseudomonas aeruginosa K 84-16, read-out: MIC) was greater than 16 µg/mL, the MIC (Pseudomonas aeruginosa; Pseudomonas aeruginosa VGH 84-3) was greater than 16 µg/mL and the MIC (Providencia stuartii) was greater than 16 µg/mL. It also gave an MIC (Enterobacter cloacae; Enterobacter cloacae K 84-10, Mueller-Hinton agar) of 2 µg/mL (≈ 5.63 µM), an MIC (Enterobacter cloacae; Enterobacter cloacae MOR 84-30, Mueller-Hinton agar) of 16 µg/mL (≈ 45 µM) and an MIC (Enterobacter cloacae; Enterobacter cloacae VGH 84-39, Mueller-Hinton agar) of 2 µg/mL (≈ 5.63 µM). The MIC (Staphylococcus aureus; ATCC25913, Staphylococcus aureus ATCC 25913, read-out: MIC) was greater than 16 µg/mL, the MIC (Staphylococcus aureus; Staphylococcus aureus CMC 83-131) was greater than 16 µg/mL and the MIC (Staphylococcus aureus; Staphylococcus aureus K 82-26) was greater than 16 µg/mL. For the same molecule, the MIC (Staphylococcus aureus; Staphylococcus aureus VGH 84-47, read-out: MIC) was greater than 16 µg/mL, the MIC (Serratia marcescens; Serratia marcescens CMC 83-74, Mueller-Hinton agar) was greater than 16 µg/mL and the MIC (Serratia marcescens; Serratia marcescens IO 83-63, Mueller-Hinton agar) was 4 µg/mL (≈ 11.3 µM). The MIC (Serratia marcescens; Serratia marcescens MOR 84-41, Mueller-Hinton agar) was 2 µg/mL (≈ 5.63 µM).
